Test results as given in patent publication US20130266557A1, “METHODS FOR TREATMENT OF A SARCOMA USING AN EPIMETABOLIC SHIFTER (COENZYME Q10)” (priority 2009, published 2013).
Like-named read-outs stand apart in the source and are kept apart here.

Columns and labels:
[1] = target: mitochondrial complex II (Homo sapiens, UniProt O14521+P21912+Q99643); details: cancer cells; Mazzio and Soliman 2004; cited from earlier work
[2] = system: NCIES0808 cells; assay: Real-time PCR, Human Angiogenesis Arrays; type: cell-based; details: 100 uM Q10
Method: (§1) NCIES0808 cells were plated in T25 flasks at a density of 2×10^6 cells per flask in media or media containing 50 uM/100 uM Q10. All treatment groups were run in triplicate. Cells were harvested at 0, 3, 6, 24 or 48 hours. Pictures were taken to examine cell morphology before harvesting. To harvest cells, media was removed but saved to be able to collect floating apoptotic cells. Cells were trypsinized with 1 ml of trypsin-EDTA and the enzyme action was stopped by addition of 4 ml complete media. Trypsinized cells were added to the appropriate tube containing the media with dead cells. Cells were centrifuged at 1200 rpm for 5 minutes and media was aspirated leaving behind the cell pellet for RNA extraction. RNA isolation from cell pellets was carried out with the RNeasy kit (Qiagen, Valencia Calif.) according to the manufacturer's instructions. RNA samples were eluted from spin columns in water; absorbance was measured at 260 nm, 230 nm and 280 nm. The purity of RNA was evaluated by the 260/230 and 280/230 ratios. The concentration of RNA in all of the samples was calculated from absorbance values at […]. First strand cDNA was synthesized from 0.5 ug of all RNA samples using instructions provided with the First strand kit (SABiosciences, Frederick, Md.). The synthesized first strand from a sample was dispensed equally in a PCR array plate containing primers within a pathway (Angiogenesis, Diabetes and Mitochondria) (SABiosciences Corporation, Frederick, Md.). The arrays were amplified with real time PCR using the SYBR green detection methods using manufacturer approved protocols. The ct values from each of the samples were normalized to three housekeeping genes and fold regulation of Q10 treated groups was compared to time matched controls from cells grown in regular media was calculated.
(§2) The experiments described in this example were performed to test the overall hypothesis that Q10 would have an impact on expression of multiple genes in Ewing's sarcoma cells. The mRNA from NCIES0808 cells treated with 50 μM or 100 μM Q10 for various times was evaluated by RT-PCR against a panel of target proteins involved in human diabetes, human angiogenesis or human mitochondrial pathways.
(§3) Ct values obtained from a real time thermocycler were loaded onto the analysis tool on the SABiosciences website for calculation of fold regulation compared to cells with media. The genes that are included in the tables below are those that show a p value of close to 0.05.

[3] = system: melanoma cell; assay: Bcl2 level in the presence of VEGF; type: cell-based
From the text: The term “Multidimensional Intracellular Molecule (MIM)”, is an isolated version or synthetically produced version of an endogenous molecule that is naturally produced by the body and/or is present in at least one cell of a human. A MIM is capable of entering a cell and the entry into the cell includes complete or partial entry into the cell as long as the biologically active portion of the molecule wholly enters the cell. MIMs are capable of inducing a signal transduction and/or gene expression mechanism within a cell. MIMs are multidimensional because the molecules have both a therapeutic and a carrier, e.g., drug delivery, effect. MIMs also are multidimensional because the molecules act one way in a disease state and a different way in a normal state.

[4] = Level and form of CoQ10 in mitochondrial enriched preparations; type: cell-based
Method: Experiments were carried out to confirm the entry of CoQ10 into cells and to determine the level and form of CoQ10 present in the cells. In particular, the level of Coenzyme Q10, as well as the form of CoQ10 (i.e., oxidized or reduced), present in the mitochondria was determined by analyzing mitochondrial enriched preparations from cells treated with CoQ10. […] In addition, changes in levels of proteins from mitochondria enriched samples were analyzed by using 2-D gel electrophoresis and protein identification by mass spectrometry characterization.

[5] = system: keratinocytes and dermal fibroblasts; assay: Proliferation and migration of normal cells; type: cell-based; details: including keratinocytes and dermal fibroblasts
From the text: Moreover, a surprising divergent effect was observed on normal cells as compared to oncogenic cells.

[6] = system: NCIES0808 cells; assay: Real-time PCR, Human Diabetes Arrays; type: cell-based
Method: as §1, §2, §3

[7] = system: Ewing Sarcoma cell lines (JDT, 0808); assay: Combined antibody array, 2-D gel/MS and real time PCR microarray; type: cell-based; details: in response to CoQ10 treatment
From the text: Functional groups were identified using “The Database for Annotation, Visualization and Integrated Discovery’ [DAVID] that subdivided the genes in 42 major clusters. Maximum number of genes from the list were segregated within the “Regulation of Cellular Process” and “Metabolic Process” functional groups with the other proteins spread over functional groups including regulation of transcription, programmed cell death, cell development, cytoskeleton, nucleus, proteosome and organ development.

[8] = cited from earlier work
[9] = cited from earlier work; remark: listed apart in the source
[10] = human plasma; cited from earlier work

mitochondrial complex II, sequence (P31040 43-664 partner): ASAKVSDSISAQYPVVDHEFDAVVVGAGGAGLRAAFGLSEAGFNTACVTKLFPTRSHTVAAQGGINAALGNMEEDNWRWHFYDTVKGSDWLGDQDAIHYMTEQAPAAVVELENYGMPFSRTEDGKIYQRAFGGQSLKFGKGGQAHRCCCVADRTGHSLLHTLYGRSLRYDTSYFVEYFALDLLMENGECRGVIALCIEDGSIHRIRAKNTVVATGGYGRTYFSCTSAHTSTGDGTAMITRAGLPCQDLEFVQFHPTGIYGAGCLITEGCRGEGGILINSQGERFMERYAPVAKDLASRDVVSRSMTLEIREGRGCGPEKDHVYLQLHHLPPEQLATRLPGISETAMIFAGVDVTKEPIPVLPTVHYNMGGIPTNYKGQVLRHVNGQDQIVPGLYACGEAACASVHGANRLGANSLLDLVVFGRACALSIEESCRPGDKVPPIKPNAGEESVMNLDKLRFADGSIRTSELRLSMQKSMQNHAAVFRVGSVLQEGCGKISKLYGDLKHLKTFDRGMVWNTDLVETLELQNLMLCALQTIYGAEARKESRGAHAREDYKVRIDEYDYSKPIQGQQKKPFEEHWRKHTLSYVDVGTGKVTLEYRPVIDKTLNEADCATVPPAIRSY
mitochondrial complex II, sequence (P21912 29-280): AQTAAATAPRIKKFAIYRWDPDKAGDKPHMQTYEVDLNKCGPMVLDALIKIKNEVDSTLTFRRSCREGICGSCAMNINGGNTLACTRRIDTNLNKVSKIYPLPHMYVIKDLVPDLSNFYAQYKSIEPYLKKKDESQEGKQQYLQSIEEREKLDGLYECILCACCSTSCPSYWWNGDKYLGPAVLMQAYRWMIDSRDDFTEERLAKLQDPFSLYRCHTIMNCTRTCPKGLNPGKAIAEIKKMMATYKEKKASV
mitochondrial complex II, sequence (Q99643 30-169): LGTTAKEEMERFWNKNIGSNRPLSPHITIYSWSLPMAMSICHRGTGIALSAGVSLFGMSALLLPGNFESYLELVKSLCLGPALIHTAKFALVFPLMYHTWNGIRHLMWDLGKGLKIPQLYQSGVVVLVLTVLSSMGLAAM
mitochondrial complex II, sequence (O14521 57-159): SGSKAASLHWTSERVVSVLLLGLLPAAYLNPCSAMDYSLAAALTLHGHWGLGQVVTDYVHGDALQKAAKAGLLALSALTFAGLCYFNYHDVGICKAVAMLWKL

Coenzyme Q10 [CoQ10]
Effect on Vmax of mitochondrial complex II activity [1]: increase the Vmax of mitochondrial complex II activity
Pattern of regulation, ANGPTL3 mRNA ([2]; 3 hours): Down regulation at 3 hours with 100 uM Q10.
Pattern of regulation, CCL2 mRNA ([2]; 3 hours): Down regulation at 3 hours with 100 uM Q10.
Pattern of regulation, CDH5 mRNA ([2]; 3 hours): Down regulation at 3 and 24 hours with 100 uM Q10.
Pattern of regulation, CXCL1 mRNA ([2]; 3 hours): Down regulation at 3 hours with 100 uM Q10
Pattern of regulation, CXCL3 mRNA ([2]; 3 hours): Down regulation at 3 hours with 100 uM Q10.
Pattern of regulation, LAMA5 mRNA ([2]; 6 hours): Up regulation at 6 hours with 100 uM Q10.
Pattern of regulation, CDH5 mRNA ([2]; 24 hours): Down regulation at 3 and 24 hours with 100 uM Q10.
Pattern of regulation, PXLDC1 mRNA ([2]; 48 hours): Up regulation at 48 hours with 100 uM Q10.
Level of Bcl2 [3]: decreased level of Bcl2
Level of Coenzyme Q10 present in the mitochondria ([4]; addition of exogenous Q10): increase in a time and dose dependent manner
Form of CoQ10 present in the mitochondria ([4]; mitochondrial enriched preparations from treated cells): primarily in oxidized form
Effect on normal cells [5]: increased proliferation and migration
Pattern of regulation, FOXP3 mRNA ([6]; 6 hours, 50 uM Q10): Upregulation at 6 hours with 50 uM and 100 uM Q10.
Pattern of regulation, FOXP3 mRNA ([6]; 6 hours, 100 uM Q10): Upregulation at 6 hours with 50 uM and 100 uM Q10.
Pattern of regulation, GCGR mRNA ([6]; 6 hours, 100 uM Q10): Upregulation at 6 hours with 100 uM Q10.
Pattern of regulation, GPD1 mRNA ([6]; 6 hours, 100 uM Q10): Upregulation at 6 hours with 100 uM Q10.
Pattern of regulation, INPPL1 mRNA ([6]; 6 hours, 100 uM Q10): Upregulation at 6 hours with 100 uM Q10.
Pattern of regulation, IRS2 mRNA ([6]; 6 hours, 100 uM Q10): Upregulation at 6 hours with 100 uM Q10.
Pattern of regulation, ADRB mRNA ([6]; 24 hours, 100 uM Q10): Upregulation at 24 hours with 100 uM Q10.
Pattern of regulation, DUSP4 mRNA ([6]; 24 hours, 100 uM Q10): Upregulation at 24 hours with 100 uM Q10.
Pattern of regulation, FOX C2 mRNA ([6]; 24 hours, 100 uM Q10): Upregulation at 24 hours with 100 uM Q10
Pattern of regulation, HMOX1 mRNA ([6]; 24 hours, 100 uM Q10): Upregulation at 24 and 48 hours with 100 uM Q10.
Pattern of regulation, VEGFA mRNA ([6]; 24 hours, 100 uM Q10): Upregulation at 24 hours with 100 uM Q10 and 48 hours
Pattern of regulation, VEGFA mRNA ([6]; 48 hours, 50 uM Q10): Upregulation at 24 hours with 100 uM Q10 and 48 hours
Pattern of regulation, CEACAM1 mRNA ([6]; 48 hours, 100 uM Q10): Upregulation at 48 hours with 100 uM Q10.
Pattern of regulation, HMOX1 mRNA ([6]; 48 hours, 100 uM Q10): Upregulation at 24 and 48 hours with 100 uM Q10.
Pattern of regulation, IL4R mRNA ([6]; 48 hours, 100 uM Q10): Upregulation at 48 hours with 100 uM Q10.
Number of gene products whose expression is significantly influenced [7]: over 90
Share of identified gene products down-regulated [7]: ~40%
Share of identified gene products up-regulated [7]: approximately 60%
Solubility in water [8]: insoluble in water
Share of CoQ10 in the reduced form ([9]; blood (plasma)): ~96%
Share of CoQ10 in the reduced form ([9]; heart): about 61%
Share of CoQ10 in the reduced form ([9]; intenstine): ~95%
Share of CoQ10 in the reduced form ([9]; kidney): ~75%
Share of CoQ10 in the reduced form ([9]; liver): ~95%
Share of CoQ10 in the reduced form ([9]; muscle): ~65%
Share of the molecule found in the reduced form (Q10H2) [10]: 90%
